Reference: ChEMBL document CHEMBL5696442, “Discovery of type II inhibitors of TGFβ-activated kinase 1 (TAK1) and mitogen-activated protein kinase kinase kinase kinase 2 (MAP4K2)” (J Med Chem, 2015)
The source made the active and inactive calls. The calls are words filed in the database; no cut-off is given here.

How the values were obtained:
[1] = target: T1, Serine/threonine-protein kinase TAO1 (Homo sapiens) (UniProt Q7L7X3); assay: Inhibition of TAOK1 (unknown origin) at 1 uM by Ambit Kinomescan binding assay relative to control
T1 sequence (whole entry): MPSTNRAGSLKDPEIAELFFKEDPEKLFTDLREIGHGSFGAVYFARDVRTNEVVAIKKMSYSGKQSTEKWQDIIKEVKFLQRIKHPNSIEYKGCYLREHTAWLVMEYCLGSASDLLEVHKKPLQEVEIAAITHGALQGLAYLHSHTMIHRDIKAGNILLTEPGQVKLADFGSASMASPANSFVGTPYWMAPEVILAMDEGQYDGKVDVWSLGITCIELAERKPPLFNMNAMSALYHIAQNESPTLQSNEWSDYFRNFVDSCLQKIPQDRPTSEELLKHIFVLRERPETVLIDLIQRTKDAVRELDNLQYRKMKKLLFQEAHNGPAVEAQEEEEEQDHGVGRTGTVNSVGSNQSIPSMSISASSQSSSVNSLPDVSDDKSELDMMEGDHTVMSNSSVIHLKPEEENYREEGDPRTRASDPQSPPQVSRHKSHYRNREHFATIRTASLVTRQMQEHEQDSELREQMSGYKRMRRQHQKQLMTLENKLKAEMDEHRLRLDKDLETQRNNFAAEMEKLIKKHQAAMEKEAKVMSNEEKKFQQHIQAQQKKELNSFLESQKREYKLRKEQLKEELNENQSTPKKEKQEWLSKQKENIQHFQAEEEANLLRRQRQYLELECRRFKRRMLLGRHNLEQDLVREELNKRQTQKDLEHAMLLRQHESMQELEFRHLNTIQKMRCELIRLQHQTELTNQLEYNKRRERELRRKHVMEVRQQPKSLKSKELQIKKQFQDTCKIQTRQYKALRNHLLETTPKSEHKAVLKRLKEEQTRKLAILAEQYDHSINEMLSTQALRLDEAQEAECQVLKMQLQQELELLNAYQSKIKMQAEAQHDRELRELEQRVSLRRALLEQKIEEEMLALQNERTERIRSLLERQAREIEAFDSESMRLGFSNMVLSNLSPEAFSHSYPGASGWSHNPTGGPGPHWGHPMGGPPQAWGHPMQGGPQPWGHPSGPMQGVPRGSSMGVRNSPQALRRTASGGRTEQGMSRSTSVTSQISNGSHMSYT

[2] = target: Ribosomal protein S6 kinase alpha-1 (Homo sapiens) (UniProt Q15418); assay: Inhibition of RSK1 domain1 ACT labeling site in human A-375 cells at 5 uM by KiNativ Profiling analysis relative to control; format: cell-based
[3] = target: Serine/threonine-protein kinase 38-like (Homo sapiens) (UniProt Q9Y2H1); assay: Inhibition of NDR2 (unknown origin) at 1 uM by Ambit Kinomescan binding assay relative to control; values are per cent of control
[4] = target: Serine/threonine-protein kinase PLK3 (Homo sapiens) (UniProt Q9H4B4); assay: Inhibition of PLK3 (unknown origin) at 1 uM by Ambit Kinomescan binding assay relative to control; values are per cent of control
[5] = target: Discoidin domain-containing receptor 2 (Homo sapiens) (UniProt Q16832); assay: Inhibition of DDR2 (unknown origin) at 1 uM by Ambit Kinomescan binding assay relative to control; values are per cent of control
[6] = target: Cyclin-dependent kinase 7 (Homo sapiens) (UniProt P50613); assay: Inhibition of CDK7 K2 labeling site in human Huh-7 cells at 1 uM by KiNativ Profiling analysis relative to control; format: cell-based
[7] = target: T2, Serine/threonine-protein kinase Chk1 (Homo sapiens) (UniProt O14757); assay: Inhibition of CHK1 Lys2 labeling site harbouring DIKPENLLLDERDNLK in human A-375 cells at 0.5 uM by KiNativ Profiling analysis relative to control; format: cell-based
T2 sequence (whole entry): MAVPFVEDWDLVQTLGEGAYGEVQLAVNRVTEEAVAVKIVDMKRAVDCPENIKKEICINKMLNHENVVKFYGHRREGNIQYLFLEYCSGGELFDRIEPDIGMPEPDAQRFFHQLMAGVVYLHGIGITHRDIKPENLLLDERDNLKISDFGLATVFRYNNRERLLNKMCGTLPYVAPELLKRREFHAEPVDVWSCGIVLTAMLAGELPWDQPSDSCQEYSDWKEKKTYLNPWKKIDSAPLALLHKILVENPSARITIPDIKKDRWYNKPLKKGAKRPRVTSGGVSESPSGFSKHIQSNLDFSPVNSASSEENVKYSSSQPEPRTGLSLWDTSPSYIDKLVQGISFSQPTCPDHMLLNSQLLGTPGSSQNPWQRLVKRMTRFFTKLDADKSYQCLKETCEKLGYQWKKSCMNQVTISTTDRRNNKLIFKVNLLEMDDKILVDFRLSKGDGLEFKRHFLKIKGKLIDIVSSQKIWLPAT

[8] = target: Peripheral plasma membrane protein CASK (Homo sapiens) (UniProt O14936); assay: Inhibition of CASK Lys1 labeling site in human A-375 cells at 5 uM by KiNativ Profiling analysis relative to control
[9] = target: Tyrosine-protein kinase JAK3 (Homo sapiens) (UniProt P52333); assay: Inhibition of JAK3 JH1catalytic domain (unknown origin) at 10 uM by Ambit Kinomescan binding assay relative to control; values are per cent of control
[10] = target: Mast/stem cell growth factor receptor Kit (Homo sapiens) (UniProt P10721); assay: Inhibition of KIT (unknown origin) at 10 uM by Ambit Kinomescan binding assay relative to control
[11] = target: Wee1-like protein kinase (Homo sapiens) (UniProt P30291); assay: Inhibition of Wee1 K2 labeling site in human Huh-7 cells at 1 uM by KiNativ Profiling analysis relative to control; format: cell-based
[12] = target: Ribosomal protein S6 kinase alpha-1 (Homo sapiens) (UniProt Q15418); assay: Inhibition of N-terminal RPS6KA1 kinase domain 1 (unknown origin) at 10 uM by Ambit Kinomescan binding assay
[13] = target: Calcium/calmodulin-dependent protein kinase type II subunit gamma (Homo sapiens) (UniProt Q13555); assay: Inhibition of CAMK2G (unknown origin) at 10 uM by Ambit Kinomescan binding assay
[14] = target: Atypical kinase COQ8A, mitochondrial (Homo sapiens) (UniProt Q8NI60); assay: Inhibition of ADCK3 (unknown origin) at 10 uM by Ambit Kinomescan binding assay
[15] = target: Mitogen-activated protein kinase kinase kinase 11 (Homo sapiens) (UniProt Q16584); assay: Inhibition of MLK3 Lys2 labeling site in human Huh-7 cell lysate at 1 uM by KiNativ Profiling analysis relative to control; format: subcellular
[16] = target: Serine/threonine-protein kinase 24 (Homo sapiens) (UniProt Q9Y6E0); assay: Inhibition of MST3 Lys2 labeling site harbouring IHRDIKAANVLLSEHGEVK in human Huh-7 cells at 1 uM by KiNativ Profiling analysis relative to control; format: cell-based
[17] = target: Rho-associated protein kinase 2 (Homo sapiens) (UniProt O75116); assay: Inhibition of ROCK2 Lys2 labeling site in human Huh-7 cell lysate at 1 uM by KiNativ Profiling analysis relative to control; format: subcellular
Chain of Rho-associated protein kinase 2 (Homo sapiens) (O75116 whole entry, looked up): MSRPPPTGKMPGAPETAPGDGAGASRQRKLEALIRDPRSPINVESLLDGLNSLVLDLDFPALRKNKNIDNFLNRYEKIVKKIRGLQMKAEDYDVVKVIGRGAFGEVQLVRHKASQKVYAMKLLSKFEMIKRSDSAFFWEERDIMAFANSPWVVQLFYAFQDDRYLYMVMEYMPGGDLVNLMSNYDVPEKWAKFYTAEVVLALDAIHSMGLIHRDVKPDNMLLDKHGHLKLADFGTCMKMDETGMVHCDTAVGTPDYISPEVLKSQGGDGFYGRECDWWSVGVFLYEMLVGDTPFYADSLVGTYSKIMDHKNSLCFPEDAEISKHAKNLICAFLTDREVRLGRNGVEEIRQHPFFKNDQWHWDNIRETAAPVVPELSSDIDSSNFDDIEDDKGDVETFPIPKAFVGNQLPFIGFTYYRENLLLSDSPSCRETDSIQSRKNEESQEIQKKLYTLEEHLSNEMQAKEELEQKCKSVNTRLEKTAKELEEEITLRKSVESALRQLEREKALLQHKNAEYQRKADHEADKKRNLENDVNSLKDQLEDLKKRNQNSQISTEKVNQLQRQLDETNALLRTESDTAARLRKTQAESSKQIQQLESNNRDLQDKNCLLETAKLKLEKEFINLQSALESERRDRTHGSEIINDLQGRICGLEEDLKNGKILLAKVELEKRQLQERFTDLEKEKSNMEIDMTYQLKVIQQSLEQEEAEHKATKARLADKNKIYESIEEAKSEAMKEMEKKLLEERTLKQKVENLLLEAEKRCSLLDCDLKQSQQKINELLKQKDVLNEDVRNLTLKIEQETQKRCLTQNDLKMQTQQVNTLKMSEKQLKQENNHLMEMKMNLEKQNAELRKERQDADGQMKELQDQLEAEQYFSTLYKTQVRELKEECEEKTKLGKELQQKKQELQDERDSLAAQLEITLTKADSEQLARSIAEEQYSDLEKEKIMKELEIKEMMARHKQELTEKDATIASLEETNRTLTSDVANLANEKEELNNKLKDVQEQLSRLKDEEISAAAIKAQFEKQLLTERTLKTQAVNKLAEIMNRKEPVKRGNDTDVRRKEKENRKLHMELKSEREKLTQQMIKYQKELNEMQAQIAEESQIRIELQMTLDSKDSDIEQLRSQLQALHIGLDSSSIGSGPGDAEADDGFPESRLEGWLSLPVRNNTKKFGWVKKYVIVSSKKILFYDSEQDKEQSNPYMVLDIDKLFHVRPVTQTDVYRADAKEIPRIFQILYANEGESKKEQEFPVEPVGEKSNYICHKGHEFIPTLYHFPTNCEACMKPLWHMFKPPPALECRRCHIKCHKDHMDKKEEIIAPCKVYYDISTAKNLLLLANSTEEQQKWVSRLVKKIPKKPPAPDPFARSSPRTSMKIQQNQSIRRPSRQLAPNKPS

Chain of Ribosomal protein S6 kinase alpha-1 (Homo sapiens) (Q15418 whole entry, the tested form may be a part): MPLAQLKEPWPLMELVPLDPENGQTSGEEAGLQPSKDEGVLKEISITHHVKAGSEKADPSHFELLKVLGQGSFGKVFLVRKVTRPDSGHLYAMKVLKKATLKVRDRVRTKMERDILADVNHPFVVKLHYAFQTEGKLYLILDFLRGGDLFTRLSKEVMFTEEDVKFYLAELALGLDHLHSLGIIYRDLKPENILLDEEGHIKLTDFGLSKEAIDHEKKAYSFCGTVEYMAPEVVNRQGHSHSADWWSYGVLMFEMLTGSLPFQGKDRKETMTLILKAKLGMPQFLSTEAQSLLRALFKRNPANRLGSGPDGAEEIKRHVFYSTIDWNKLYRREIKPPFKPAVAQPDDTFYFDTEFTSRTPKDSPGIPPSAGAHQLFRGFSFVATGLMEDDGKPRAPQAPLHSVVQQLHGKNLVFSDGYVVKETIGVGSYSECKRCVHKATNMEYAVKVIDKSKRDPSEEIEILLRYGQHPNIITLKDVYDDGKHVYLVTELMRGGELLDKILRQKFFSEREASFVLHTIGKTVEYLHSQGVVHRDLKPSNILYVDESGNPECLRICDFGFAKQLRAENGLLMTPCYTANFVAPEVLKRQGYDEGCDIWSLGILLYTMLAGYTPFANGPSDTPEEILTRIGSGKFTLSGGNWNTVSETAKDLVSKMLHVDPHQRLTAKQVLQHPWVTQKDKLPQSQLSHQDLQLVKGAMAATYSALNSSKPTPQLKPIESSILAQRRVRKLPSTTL
Chain of Mast/stem cell growth factor receptor Kit (Homo sapiens) (P10721 whole entry): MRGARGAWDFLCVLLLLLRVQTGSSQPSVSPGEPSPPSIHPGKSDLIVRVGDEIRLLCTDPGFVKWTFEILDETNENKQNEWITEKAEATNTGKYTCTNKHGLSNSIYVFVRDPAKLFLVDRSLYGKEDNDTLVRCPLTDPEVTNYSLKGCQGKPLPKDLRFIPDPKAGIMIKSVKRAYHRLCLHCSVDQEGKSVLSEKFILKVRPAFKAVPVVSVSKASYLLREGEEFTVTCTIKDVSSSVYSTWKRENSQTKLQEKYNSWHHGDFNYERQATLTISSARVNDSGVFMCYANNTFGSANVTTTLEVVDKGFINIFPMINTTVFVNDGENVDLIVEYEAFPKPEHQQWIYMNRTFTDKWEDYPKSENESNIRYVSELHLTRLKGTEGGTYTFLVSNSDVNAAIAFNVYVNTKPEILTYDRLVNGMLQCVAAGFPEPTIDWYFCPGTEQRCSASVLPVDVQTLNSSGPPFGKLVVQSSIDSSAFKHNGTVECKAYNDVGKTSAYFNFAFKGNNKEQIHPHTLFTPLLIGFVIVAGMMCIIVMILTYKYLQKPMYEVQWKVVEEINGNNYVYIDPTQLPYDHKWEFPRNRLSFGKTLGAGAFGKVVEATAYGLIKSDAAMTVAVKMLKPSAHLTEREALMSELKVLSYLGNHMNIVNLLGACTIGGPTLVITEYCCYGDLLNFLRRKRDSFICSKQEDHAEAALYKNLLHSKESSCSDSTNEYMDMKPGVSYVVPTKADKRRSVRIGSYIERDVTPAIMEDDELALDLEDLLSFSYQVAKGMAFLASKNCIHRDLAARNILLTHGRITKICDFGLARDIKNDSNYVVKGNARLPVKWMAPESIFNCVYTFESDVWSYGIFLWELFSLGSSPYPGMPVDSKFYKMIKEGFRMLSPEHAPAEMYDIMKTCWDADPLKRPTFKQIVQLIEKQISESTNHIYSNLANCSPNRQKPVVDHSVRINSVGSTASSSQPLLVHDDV
Chain of Calcium/calmodulin-dependent protein kinase type II subunit gamma (Homo sapiens) (Q13555 whole entry): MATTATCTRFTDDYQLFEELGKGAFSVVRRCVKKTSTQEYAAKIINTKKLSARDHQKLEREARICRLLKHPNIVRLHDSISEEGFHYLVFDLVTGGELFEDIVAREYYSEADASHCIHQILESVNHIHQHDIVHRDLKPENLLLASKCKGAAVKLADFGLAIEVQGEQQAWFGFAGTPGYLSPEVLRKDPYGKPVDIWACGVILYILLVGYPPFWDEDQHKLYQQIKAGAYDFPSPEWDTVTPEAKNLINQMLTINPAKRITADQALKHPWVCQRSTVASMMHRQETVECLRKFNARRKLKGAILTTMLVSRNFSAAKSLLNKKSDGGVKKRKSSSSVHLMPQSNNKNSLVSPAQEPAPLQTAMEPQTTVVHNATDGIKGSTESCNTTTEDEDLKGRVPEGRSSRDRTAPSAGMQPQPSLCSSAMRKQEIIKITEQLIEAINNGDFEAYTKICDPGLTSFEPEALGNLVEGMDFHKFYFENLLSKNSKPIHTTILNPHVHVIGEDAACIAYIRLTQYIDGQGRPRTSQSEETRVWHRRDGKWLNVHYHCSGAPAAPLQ
Chain of Cyclin-dependent kinase 7 (Homo sapiens) (P50613 whole entry): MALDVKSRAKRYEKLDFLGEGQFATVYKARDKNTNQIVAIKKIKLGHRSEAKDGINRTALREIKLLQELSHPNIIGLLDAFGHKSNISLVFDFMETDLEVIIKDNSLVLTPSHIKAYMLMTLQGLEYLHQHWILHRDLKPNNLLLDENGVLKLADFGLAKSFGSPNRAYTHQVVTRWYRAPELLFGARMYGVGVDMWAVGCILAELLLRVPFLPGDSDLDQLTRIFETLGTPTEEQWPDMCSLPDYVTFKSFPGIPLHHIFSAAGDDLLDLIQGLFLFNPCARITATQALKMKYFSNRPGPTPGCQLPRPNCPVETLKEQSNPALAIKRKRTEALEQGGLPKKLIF
Chain of Atypical kinase COQ8A, mitochondrial (Homo sapiens) (Q8NI60 163-647 limits assumed): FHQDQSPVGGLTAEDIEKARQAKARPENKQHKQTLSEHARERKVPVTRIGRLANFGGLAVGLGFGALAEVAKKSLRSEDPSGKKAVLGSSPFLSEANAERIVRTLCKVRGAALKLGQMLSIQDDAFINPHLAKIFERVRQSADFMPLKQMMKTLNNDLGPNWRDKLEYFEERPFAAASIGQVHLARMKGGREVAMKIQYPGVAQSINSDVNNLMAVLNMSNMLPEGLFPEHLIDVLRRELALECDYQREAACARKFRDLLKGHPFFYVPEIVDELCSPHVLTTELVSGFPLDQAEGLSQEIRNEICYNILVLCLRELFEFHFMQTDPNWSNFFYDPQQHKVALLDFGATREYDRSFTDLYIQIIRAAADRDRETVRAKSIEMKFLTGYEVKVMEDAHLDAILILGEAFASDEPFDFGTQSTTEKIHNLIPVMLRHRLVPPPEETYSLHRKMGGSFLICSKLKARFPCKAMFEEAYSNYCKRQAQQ
Chain of Serine/threonine-protein kinase 38-like (Homo sapiens) (Q9Y2H1 2-464 limits assumed): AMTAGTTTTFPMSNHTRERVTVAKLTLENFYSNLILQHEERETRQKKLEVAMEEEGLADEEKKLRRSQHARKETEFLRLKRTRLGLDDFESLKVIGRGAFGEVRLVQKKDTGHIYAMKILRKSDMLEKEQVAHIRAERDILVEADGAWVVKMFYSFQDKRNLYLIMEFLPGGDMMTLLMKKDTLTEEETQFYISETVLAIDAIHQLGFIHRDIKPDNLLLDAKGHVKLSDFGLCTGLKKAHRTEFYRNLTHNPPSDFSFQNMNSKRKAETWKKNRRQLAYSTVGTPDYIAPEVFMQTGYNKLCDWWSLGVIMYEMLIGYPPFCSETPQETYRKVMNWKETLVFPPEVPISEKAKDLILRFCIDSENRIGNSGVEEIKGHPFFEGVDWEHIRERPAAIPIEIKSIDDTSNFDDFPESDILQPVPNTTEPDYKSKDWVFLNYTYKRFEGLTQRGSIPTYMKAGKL

CCN1CCN(Cc2ccc(NC(=O)c3ccc(C)c(/C=C/c4cnc5[nH]ccc5c4OC)c3)cc2C(F)(F)F)CC1 gave an inhibition [1] of 22%, an inhibition [2] of 14.7% and a residual activity [3] of 79%. The residual activity [4] was 100% and the residual activity [5] was 0.2%.
With CCN1CCN(Cc2ccc(NC(=O)c3ccc(C)c(Oc4ccnc5[nH]ccc45)c3)cc2C(F)(F)F)CC1 the inhibition [6] was 5.6%, the inhibition [7] was 41.1% and the inhibition [8] was 6.6%. For the same compound, the percent of control [9] was 2.4%, the inhibition [10] was 0% and the inhibition [11] was 1.5%. The inhibition [12] was “inactive”, the inhibition [13] was “inactive” and the inhibition [14] was “inactive”.
Compound CNc1cc(Oc2cc(C(=O)Nc3cc(N4CCN(C)CC4)cc(C(F)(F)F)c3)ccc2C)ncn1 has an inhibition [15] of 3.4%, an inhibition [16] of 5% and an inhibition [17] of 2.7%.
